Experiment [1] deals with DDR2. Nature of the experiment: Kinobeads competition binding: DDR2.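 Also: target engagement share of this target among all targets at its Kdapp concentration.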 Details: species or system human. To be noted: target DDR2.
Experiment [2] concerns the target T1, MET (Homo sapiens, UniProt P08581).
T1 construct: endogenous in cells
Nature of the experiment: Kinobeads two-dose competition binding: MET. The settings on record: target MET.

In experiment [3] the test system is AP1G1. Nature of the experiment: Kinobeads competition binding: AP1G1. Set-up: species or system human. The settings on record: target AP1G1.
Experiment [4] concerns the target T2, ACVR1B (Homo sapiens, UniProt P36896).
T2 construct: endogenous in cells
T2 sequence (P36896 24-505): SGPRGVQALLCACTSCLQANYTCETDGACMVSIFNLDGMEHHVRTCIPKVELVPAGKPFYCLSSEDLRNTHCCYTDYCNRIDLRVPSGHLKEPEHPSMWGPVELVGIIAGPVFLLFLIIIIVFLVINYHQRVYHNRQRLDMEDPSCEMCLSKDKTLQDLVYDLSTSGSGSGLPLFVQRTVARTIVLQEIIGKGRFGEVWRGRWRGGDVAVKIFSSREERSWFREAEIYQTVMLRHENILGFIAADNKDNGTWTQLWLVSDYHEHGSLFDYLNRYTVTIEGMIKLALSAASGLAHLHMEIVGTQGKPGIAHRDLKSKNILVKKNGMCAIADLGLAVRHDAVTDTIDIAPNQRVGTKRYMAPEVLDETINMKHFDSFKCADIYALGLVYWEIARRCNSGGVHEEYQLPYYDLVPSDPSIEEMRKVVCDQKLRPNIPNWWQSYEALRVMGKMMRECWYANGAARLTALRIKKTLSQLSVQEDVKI
Nature of the experiment: Kinobeads competition binding: ACVR1B. The settings on record: target ACVR1B.

Experiment [5] relates to NNT. Kind of experiment: Kinobeads competition binding: NNT.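 Also: share of total target engagement due to this protein at one drug concentration.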 Set-up: species or system human. The settings on record: target NNT.
In experiment [6] the test system is ILK. Nature of the experiment: Kinobeads competition binding: ILK. The settings on record: target ILK. Details: species or system human.
In experiment [7] the target is T3, AURKA (Homo sapiens, UniProt O14965).
T3 construct: endogenous in cells
T3 sequence (O14965 1-403): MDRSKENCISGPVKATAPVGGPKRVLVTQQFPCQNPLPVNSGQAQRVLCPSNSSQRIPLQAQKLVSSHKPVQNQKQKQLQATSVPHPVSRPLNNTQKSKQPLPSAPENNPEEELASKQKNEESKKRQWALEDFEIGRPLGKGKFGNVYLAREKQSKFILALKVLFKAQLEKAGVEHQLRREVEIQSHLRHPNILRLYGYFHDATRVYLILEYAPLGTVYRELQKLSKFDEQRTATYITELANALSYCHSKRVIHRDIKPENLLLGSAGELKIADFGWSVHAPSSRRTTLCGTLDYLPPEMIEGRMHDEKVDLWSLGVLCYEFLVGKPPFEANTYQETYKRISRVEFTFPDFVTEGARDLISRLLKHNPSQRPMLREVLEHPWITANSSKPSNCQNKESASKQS
Nature of the experiment: Kinobeads competition binding: AURKA.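 Also: selectivity score: engagement of this protein divided by summed engagement of all targets.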 To be noted: target AURKA. The text has this:
Supplement 41589_2023_1459_MOESM4_ESM.xlsx, sheet "CATDS matrix" | column: AURKA

Experiment [8] has as its system ACOX3. Nature of the experiment: Kinobeads competition binding: ACOX3.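 Also: share of all-target engagement taken by this protein at its own Kdapp concentration.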 The settings on record: target ACOX3. Details: species or system human.
Experiment [9] has as its system ERBB3. Nature of the experiment: Kinobeads competition binding: ERBB3.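 Also: selectivity score: engagement of this protein divided by summed engagement of all targets.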 Set-up: species or system human. The settings on record: target ERBB3.
The test system of experiment [10] is INSR. Nature of the experiment: Kinobeads competition binding: INSR.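 Also: share of total target engagement due to this protein at one drug concentration.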 The settings on record: target INSR. Details: species or system human.
Experiment [11] deals with T4, PKN1 (Homo sapiens, UniProt Q16512).
T4 construct: a mixture of lysates from five cancer cell lines; endogenous in cells
Kind of experiment: Kinobeads competition binding: PKN1.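 Also: share of total target engagement due to this protein at one drug concentration.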 The settings on record: target PKN1. The text has this:
Supplement 41589_2023_1459_MOESM4_ESM.xlsx, sheet "CATDS matrix" | column: PKN1

For experiment [12], the target named is T5, PIM3 (Homo sapiens, UniProt Q86V86).
T5 construct: a mixture of lysates from five cancer cell lines; endogenous in cells
Nature of the experiment: Kinobeads competition binding: PIM3. The settings on record: target PIM3. The text has this: Supplement 41589_2023_1459_MOESM4_ESM.xlsx, sheet "CATDS matrix" | column: PIM3

The target of experiment [13] is T6, AKT2 (Homo sapiens, UniProt P31751).
T6 construct: endogenous in cells
Kind of experiment: Kinobeads competition binding: AKT2. To be noted: target AKT2.

Experiment [14] deals with DDR1. Nature of the experiment: Kinobeads competition binding: DDR1. Set-up: species or system human. To be noted: target DDR1.
The test system of experiment [15] is LYN. Nature of the experiment: Kinobeads competition binding: LYN. To be noted: target LYN. Details: species or system human.
The target of experiment [16] is T7, EGFR (Homo sapiens, UniProt P00533).
T7 construct: endogenous in cells
Kind of experiment: Kinobeads two-dose competition binding: EGFR. To be noted: for CATDS: target EGFR.

Experiment [17] has as its system MERTK. Kind of experiment: Kinobeads competition binding: MERTK. Details: species or system human. To be noted: target MERTK.
The test system of experiment [18] is DCK. Kind of experiment: Kinobeads competition binding: DCK.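 Also: share of total target engagement due to this protein at one drug concentration.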 Set-up: species or system human. The settings on record: target DCK.
In experiment [19] the test system is FN3KRP. Kind of experiment: Kinobeads competition binding: FN3KRP.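 Also: share of total target engagement due to this protein at one drug concentration.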 Set-up: species or system human. The settings on record: target FN3KRP.
Experiment [20] deals with DNAJA1. Nature of the experiment: Kinobeads competition binding: DNAJA1.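 Also: share of total target engagement due to this protein at one drug concentration.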 The settings on record: target DNAJA1. Details: species or system human.
The test system of experiment [21] is CDK9. Nature of the experiment: Kinobeads competition binding: CDK9. The settings on record: target CDK9. Set-up: species or system human.
Experiment [22] concerns the target T8, CLK1 (Homo sapiens, UniProt P49759).
T8 construct: endogenous in cells
Nature of the experiment: Kinobeads competition binding: CLK1. The settings on record: target CLK1.

The target in experiment [23] is PKN3 (Homo sapiens, UniProt Q6P5Z2). Kind of experiment: Kinobeads full dose-response competition binding: PKN3.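 As to all read-outs here: inhibitor pre-incubated 45 min at 4 °C in cell lysate (5 mg/ml protein), then competed against Kinobeads ε pulldown for 30 min, bound kinase quantified by nano LC–MS/MS.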 Details: endogenous in cells. The settings on record: for Relative Intensity 0.3nM: 0.3nM compound; for Relative Intensity 0.3nM / Relative Intensity 1nM / Relative Intensity 3nM / Relative Intensity 10nM / Relative Intensity 30nM / Relative Intensity 100nM / Relative Intensity 300nM / Relative Intensity 1000nM: DMSO = 1; for Relative Intensity 1nM: 1nM compound; for Relative Intensity 3nM: 3nM compound; for Relative Intensity 10nM: 10nM compound; for Relative Intensity 30nM: 30nM compound; for Relative Intensity 100nM: 100nM compound; for Relative Intensity 300nM: 300nM compound; for Relative Intensity 1000nM: 1000nM compound; for EC50: eight-dose curve fit.

[24] abbreviates: Gene Name PKN3, EC50 with Correction, doses in nM, read-out: apparent Kd.
Setting [25] is: Kinobeads full dose-response, read-out: Kdapp PKN3.

Structures are written as SMILES. Like-named read-outs stand apart in the source and are kept apart here.

Sequence of PKN3 (Q6P5Z2 whole entry): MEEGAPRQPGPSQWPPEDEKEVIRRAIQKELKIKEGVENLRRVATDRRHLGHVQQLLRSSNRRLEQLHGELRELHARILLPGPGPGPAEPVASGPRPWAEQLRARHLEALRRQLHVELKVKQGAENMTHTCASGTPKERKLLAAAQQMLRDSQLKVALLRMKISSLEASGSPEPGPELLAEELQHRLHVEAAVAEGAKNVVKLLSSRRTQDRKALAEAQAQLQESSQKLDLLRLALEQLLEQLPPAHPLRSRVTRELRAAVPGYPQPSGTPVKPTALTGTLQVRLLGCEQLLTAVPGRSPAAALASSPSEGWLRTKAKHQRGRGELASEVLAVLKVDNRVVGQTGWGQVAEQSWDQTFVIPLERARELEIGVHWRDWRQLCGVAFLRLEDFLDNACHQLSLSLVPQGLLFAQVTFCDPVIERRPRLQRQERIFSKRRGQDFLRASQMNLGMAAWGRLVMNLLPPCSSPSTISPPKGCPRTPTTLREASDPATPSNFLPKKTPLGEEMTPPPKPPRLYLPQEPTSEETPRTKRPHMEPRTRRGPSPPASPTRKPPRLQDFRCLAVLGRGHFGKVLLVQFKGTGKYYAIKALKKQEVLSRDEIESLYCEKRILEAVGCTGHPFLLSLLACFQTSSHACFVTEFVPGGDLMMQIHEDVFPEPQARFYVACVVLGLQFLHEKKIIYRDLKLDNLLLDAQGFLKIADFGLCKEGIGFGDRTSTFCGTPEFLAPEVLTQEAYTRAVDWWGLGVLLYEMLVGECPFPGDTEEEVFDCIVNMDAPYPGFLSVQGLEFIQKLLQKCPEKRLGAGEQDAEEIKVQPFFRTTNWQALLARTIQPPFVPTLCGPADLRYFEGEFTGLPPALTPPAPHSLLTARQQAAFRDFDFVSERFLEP
T6 sequence (P31751 whole entry): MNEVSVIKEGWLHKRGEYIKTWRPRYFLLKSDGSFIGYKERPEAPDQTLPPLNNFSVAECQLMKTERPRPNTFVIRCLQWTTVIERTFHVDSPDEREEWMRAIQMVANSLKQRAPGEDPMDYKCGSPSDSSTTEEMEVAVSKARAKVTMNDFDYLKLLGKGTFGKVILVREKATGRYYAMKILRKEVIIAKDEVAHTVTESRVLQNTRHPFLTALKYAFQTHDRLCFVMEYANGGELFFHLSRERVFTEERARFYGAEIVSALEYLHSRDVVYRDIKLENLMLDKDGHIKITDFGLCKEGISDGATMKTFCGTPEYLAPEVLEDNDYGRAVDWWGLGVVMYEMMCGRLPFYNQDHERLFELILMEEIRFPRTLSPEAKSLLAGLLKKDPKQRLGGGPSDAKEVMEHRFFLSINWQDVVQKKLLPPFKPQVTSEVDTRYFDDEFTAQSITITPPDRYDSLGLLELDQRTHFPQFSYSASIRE
T7 sequence (P00533 25-1210): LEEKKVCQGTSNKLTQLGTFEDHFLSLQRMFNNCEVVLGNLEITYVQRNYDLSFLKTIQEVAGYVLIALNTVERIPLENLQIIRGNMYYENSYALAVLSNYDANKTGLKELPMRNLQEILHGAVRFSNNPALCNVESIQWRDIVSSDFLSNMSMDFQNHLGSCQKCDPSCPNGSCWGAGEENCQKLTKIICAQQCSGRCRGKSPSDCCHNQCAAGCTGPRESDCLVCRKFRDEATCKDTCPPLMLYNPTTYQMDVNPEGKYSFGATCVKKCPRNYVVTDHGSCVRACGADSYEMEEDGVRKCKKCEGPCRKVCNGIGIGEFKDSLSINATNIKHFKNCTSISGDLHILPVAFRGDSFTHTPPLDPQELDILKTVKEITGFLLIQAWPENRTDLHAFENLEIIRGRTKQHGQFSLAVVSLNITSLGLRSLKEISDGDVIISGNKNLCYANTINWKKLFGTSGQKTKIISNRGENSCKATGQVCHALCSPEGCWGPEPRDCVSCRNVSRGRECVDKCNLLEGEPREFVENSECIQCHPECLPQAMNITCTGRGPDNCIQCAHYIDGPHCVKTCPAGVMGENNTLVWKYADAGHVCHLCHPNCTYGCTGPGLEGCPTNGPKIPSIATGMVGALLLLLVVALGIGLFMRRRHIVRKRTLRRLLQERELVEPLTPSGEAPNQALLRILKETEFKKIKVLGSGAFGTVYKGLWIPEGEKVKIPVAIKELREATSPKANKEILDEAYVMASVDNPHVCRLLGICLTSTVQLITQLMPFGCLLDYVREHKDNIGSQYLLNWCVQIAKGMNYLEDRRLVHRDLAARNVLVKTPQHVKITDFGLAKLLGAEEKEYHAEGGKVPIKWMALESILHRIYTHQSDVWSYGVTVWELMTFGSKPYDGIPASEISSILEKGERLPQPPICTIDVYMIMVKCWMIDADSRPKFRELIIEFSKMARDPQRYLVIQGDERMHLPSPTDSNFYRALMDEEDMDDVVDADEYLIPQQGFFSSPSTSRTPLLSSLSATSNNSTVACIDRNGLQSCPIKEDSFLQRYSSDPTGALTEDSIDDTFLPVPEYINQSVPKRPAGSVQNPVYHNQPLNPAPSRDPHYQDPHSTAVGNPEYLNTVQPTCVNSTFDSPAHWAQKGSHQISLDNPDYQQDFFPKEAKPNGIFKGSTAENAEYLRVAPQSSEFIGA
T1 sequence (P08581 25-1390): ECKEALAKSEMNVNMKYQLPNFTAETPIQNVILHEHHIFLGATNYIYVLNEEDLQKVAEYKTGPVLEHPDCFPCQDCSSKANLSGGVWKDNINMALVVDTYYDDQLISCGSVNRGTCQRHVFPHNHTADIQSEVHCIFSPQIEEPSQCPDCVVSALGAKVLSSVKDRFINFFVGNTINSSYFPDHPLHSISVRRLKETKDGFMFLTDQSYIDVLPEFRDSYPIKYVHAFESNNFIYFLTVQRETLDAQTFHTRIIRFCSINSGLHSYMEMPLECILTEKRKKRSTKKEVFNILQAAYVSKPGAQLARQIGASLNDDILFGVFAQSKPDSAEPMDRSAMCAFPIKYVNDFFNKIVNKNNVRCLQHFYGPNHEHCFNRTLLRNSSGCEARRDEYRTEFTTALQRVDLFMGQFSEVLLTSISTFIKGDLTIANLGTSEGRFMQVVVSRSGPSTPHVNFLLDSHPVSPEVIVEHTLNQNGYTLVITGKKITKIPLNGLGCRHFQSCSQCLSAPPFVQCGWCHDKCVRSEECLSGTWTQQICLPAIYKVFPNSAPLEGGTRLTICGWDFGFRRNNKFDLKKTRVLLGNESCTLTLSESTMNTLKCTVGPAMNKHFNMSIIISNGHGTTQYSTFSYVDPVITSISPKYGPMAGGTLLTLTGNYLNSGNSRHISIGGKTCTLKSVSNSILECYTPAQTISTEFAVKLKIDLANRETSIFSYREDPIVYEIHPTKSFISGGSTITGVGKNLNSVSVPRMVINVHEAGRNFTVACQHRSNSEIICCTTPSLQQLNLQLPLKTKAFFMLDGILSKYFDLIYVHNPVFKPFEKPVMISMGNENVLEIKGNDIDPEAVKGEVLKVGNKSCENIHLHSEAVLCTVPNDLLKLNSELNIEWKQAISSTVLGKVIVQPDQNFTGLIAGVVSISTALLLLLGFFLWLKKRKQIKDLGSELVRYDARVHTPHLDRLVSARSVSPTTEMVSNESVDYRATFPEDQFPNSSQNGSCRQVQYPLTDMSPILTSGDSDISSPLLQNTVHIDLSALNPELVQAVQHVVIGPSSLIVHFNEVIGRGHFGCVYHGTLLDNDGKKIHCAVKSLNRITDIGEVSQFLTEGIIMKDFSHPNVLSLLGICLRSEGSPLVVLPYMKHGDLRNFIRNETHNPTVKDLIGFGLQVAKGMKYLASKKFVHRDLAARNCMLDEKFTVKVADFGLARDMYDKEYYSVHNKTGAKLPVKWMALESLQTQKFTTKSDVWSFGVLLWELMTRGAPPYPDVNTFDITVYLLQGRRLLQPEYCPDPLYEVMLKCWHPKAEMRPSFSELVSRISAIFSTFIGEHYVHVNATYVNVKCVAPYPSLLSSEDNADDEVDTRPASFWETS
T4 sequence (Q16512 whole entry): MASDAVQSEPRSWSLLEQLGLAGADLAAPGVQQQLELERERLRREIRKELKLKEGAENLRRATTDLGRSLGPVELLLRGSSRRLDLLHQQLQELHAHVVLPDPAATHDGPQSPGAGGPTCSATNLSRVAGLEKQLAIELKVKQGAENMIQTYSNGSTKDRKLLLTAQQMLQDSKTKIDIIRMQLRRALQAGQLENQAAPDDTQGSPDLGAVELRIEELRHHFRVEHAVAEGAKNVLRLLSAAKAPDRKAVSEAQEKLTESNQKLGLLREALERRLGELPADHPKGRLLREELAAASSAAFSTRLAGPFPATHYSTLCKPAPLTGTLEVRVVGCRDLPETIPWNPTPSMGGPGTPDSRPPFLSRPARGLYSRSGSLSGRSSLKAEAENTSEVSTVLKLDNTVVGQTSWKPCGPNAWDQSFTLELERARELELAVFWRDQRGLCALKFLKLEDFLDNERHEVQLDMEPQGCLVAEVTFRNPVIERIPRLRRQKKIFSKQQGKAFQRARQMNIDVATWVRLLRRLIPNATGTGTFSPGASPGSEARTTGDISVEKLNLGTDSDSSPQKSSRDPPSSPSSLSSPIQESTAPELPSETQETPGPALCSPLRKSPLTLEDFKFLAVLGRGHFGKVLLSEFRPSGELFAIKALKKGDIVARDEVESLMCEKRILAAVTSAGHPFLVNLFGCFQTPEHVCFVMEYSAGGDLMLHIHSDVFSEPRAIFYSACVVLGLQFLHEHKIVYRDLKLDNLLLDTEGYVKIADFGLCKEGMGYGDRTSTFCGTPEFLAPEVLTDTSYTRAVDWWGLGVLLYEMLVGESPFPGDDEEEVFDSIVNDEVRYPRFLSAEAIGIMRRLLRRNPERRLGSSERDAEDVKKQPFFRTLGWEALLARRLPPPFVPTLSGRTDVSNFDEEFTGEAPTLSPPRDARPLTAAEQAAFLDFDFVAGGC

Regarding `CCN1CCN(Cc2ccc(Nc3ncc(F)c(-c4cc(F)c5nc(C)n(C(C)C)c5c4)n3)nc2)CC1` [Abemaciclib], the CATDS in experiment [1], in experiment [2], in experiment [3], in [4], in experiment [5] and in experiment [6] was 0 throughout. Also, the CATDS in [7], in experiment [8], in experiment [9], in experiment [10], in [11] and in experiment [12] was 0 throughout. The CATDS in experiment [13], in experiment [14], in experiment [15], in experiment [16], in experiment [17] and in experiment [18] was 0 each time. The CATDS in [19] is on record as 0; in experiment [20] it was 0; in experiment [21] it was 0.02947.
As to `N#CC1(c2ccc(NC(=O)c3cccnc3NCc3ccncc3)cc2)CCCC1` [Apatinib], the CATDS in [1], in experiment [2], in [3], in experiment [4], in [5] and in [6] was 0 throughout. The CATDS in experiment [7], in experiment [8], in experiment [9], in experiment [10], in experiment [11] and in [12] was 0 each time. In addition, the CATDS in experiment [13], in experiment [14], in [15], in [16], in experiment [17] and in experiment [18] was 0 each time. The CATDS in [19], in experiment [20], in experiment [21] and in [22] was 0 throughout.
In general, EC50 refers to the midpoint of the concentration-response curve. In the case of `NCc1ccc(-c2nc(-c3ccncc3)c(-c3ccc(Cl)c(O)c3)[nH]2)cc1` [SB-476429-A], in [23] (Gene Name PKN3), the “Relative Intensity 0.3nM” value is 1.299, the “Relative Intensity 1nM” value is 1.281, the “Relative Intensity 3nM” value is listed as 1.311 and the “Relative Intensity 10nM” value is 1.076. Besides, in experiment [23] (Gene Name PKN3), the “Relative Intensity 30nM” value was determined as 0.6326, the “Relative Intensity 100nM” value is on record as 0.3718, the “Relative Intensity 300nM” value stood at 0 and the “Relative Intensity 1000nM” value was found to be 0. Moreover, the Kd in experiment [23] (setting [24]) was found to be 38.4 nM. In addition, the concentration giving a half-maximal response (EC50) in [23] (Gene Name PKN3, doses in nM) was 38.4 nM. Moreover, in experiment [23] (setting [25]), the Kd came to 38 nM.
Take `C#Cc1cccc(Nc2ncnc3cc(OC)c(OC4CCN(C)CC4)cc23)c1` [BI00007366]: the potency estimated from few doses in experiment [16] (Kinobeads two-dose, Drugmatrix - all 2, read-out: apparent Kd EGFR) is greater than 1000 nM.
With `CN(C)C/C=C/C(=O)Nc1cc2c(Nc3ccc(F)c(Cl)c3)ncnc2cc1O[C@H]1CCOC1` [Afatinib], the CATDS in experiment [2], in experiment [3], in [5], in experiment [7], in experiment [8] and in [11] was 0 throughout. Further, the CATDS in [12], in experiment [18], in [19] and in experiment [20] was 0 each time.
For `CCn1c(-c2nonc2N)nc2c(C#CC(C)(C)O)nc(OCCNC)cc21` [GSK949675A], in [23] (Gene Name PKN3), the “Relative Intensity 0.3nM” value is reported as 1.302, the “Relative Intensity 1nM” value is given as 1.271, the “Relative Intensity 3nM” value came to 1.02 and the “Relative Intensity 10nM” value was 1.139. In experiment [23] (Gene Name PKN3), the “Relative Intensity 30nM” value was 0.7655, the “Relative Intensity 100nM” value amounted to 0.7191, the “Relative Intensity 300nM” value is on record as 0 and the “Relative Intensity 1000nM” value came to 0. Moreover, the Kd in [23] (setting [24]) amounted to 89.8 nM. The compound also yielded an EC50 in experiment [23] (Gene Name PKN3, doses in nM) of 89.8 nM. Further, the Kd in experiment [23] (setting [25]) was determined as 90 nM.
On to `Nc1ncnc2[nH]c(-c3ccccc3)nc12` [AH5015_KCGS], for which the CATDS in experiment [1], in experiment [2], in experiment [3], in [4], in experiment [5] and in [6] was 0 in each case. Further, the CATDS in experiment [7], in [8], in [9], in experiment [10], in experiment [11] and in experiment [12] was 0 throughout. The CATDS in experiment [13], in experiment [14], in experiment [15], in experiment [16], in experiment [17] and in experiment [18] was 0 in each case. The CATDS in experiment [19], in experiment [20], in [21] and in [22] was 0 each time.
On to `CCn1c(-c2nonc2N)nc2c(C#CC(C)(C)O)nc(OCCN)cc21` [GSK902056A], for which, in experiment [23] (Gene Name PKN3), the “Relative Intensity 0.3nM” value was 1.0043, the “Relative Intensity 1nM” value turned out to be 0.9527, the “Relative Intensity 3nM” value was found to be 0.8181 and the “Relative Intensity 10nM” value is given as 0.5011. Besides, in experiment [23] (Gene Name PKN3), the “Relative Intensity 30nM” value is recorded as 0.201, the “Relative Intensity 100nM” value amounted to 0, the “Relative Intensity 300nM” value came to 0 and the “Relative Intensity 1000nM” value is given as 0. In addition, in experiment [23] (setting [24]), the Kd is 10.2 nM. For the same compound, the EC50 in [23] (Gene Name PKN3, doses in nM) amounted to 10.2 nM. In addition, in experiment [23] (setting [25]), the Kd came to 10 nM.
On to `CCc1cc2c(cc1N1CCC(N3CCOCC3)CC1)C(C)(C)c1[nH]c3cc(C#N)ccc3c1C2=O` [Alectinib], for which the CATDS in [1], in [2], in experiment [3], in experiment [4], in [5] and in experiment [6] was 0 in each case. Also, the CATDS in [7], in experiment [8], in experiment [9], in experiment [10], in [11] and in [12] was 0 in each case. The CATDS in experiment [13], in experiment [14], in experiment [15], in [16], in [17] and in experiment [18] was 0 throughout. Further, the CATDS in experiment [19], in [20], in [21] and in [22] was 0 each time.
